Measurements from ChEMBL document CHEMBL3885881, “DrugMatrix”.

Organism: Rattus norvegicus
Test: DrugMatrix - Regimen: Daily Repeat
Format: toxicity, organism-based, Sprague-Dawley
Parameters: regimen Daily Repeat, gender Male, age 6-8 weeks
Settings: in vivo, po, route oral GAVAGE, vehicle 100 % WATER; for ABSOLUTE BASOPHIL / ABSOLUTE EOSINOPHIL / ABSOLUTE LYMPHOCYTE / ABSOLUTE MONOCYTE / ABSOLUTE SEGMENTED NEUTROPHIL / BASOPHIL / EOSINOPHIL / ERYTHROCYTE COUNT / HEMATOCRIT / HEMOGLOBIN / LEUKOCYTE COUNT / LYMPHOCYTE / MEAN CORPUSCULAR HEMOGLOBIN / MEAN CORPUSCULAR HEMOGLOBIN CONCENTRATION / MEAN CORPUSCULAR VOLUME / MONOCYTE / NEUTROPHIL / NUCLEATED RED BLOOD CELLS / PLATELET COUNT: tissue Blood; for ALANINE AMINOTRANSFERASE / ALBUMIN / ALKALINE PHOSPHATASE / ASPARTATE AMINOTRANSFERASE / BLOOD UREA NITROGEN / CARBON DIOXIDE / CHLORIDE / CHOLESTEROL / CREATINE PHOSPHOKINASE / CREATININE / GLUCOSE / LACTATE DEHYDROGENASE / LIPASE / PHOSPHORUS / POTASSIUM / SODIUM / TOTAL BILIRUBIN / TOTAL PROTEIN / URIC ACID: tissue Plasma
[1] = 46 mg/kg, 72 h, dose level High, time 3 day
[2] = 46 mg/kg, 120 h, dose level High, time 5 day
[3] = […], 72 h, dose 4.6 mg/Kg, dose level Low, time 3 day
[4] = […], 120 h, dose 4.6 mg/Kg, dose level Low, time 5 day

## CC(C)NNC(=O)c1ccncc1 [IPRONIAZID]
[1]
  ABSOLUTE BASOPHIL: 0 CELLS/uL
  ABSOLUTE EOSINOPHIL: 0 CELLS/uL
  ABSOLUTE LYMPHOCYTE: 9249.33 CELLS/uL
  ABSOLUTE MONOCYTE: 21.67 CELLS/uL
  ABSOLUTE SEGMENTED NEUTROPHIL: 762.33 CELLS/uL
  BASOPHIL: 0%
  EOSINOPHIL: 0%
  ERYTHROCYTE COUNT: 5.56 x10E6/uL
  HEMATOCRIT: 34.37%
  HEMOGLOBIN: 13.47 G/DL
  LEUKOCYTE COUNT: 10.03 x10E3/uL
  LYMPHOCYTE: 91.33%
  MEAN CORPUSCULAR HEMOGLOBIN: 24.27 pg
  MEAN CORPUSCULAR HEMOGLOBIN CONCENTRATION: 39.17 G/DL
  MEAN CORPUSCULAR VOLUME: 61.87 fL
  MONOCYTE: 0.33%
  NEUTROPHIL: 8.33%
  NUCLEATED RED BLOOD CELLS: 0 /100WBC
  PLATELET COUNT: 1304.67 x10E3/uL
  ALANINE AMINOTRANSFERASE: 37 u/L
  ALBUMIN: 4.23 G/DL
  ALKALINE PHOSPHATASE: 308 u/L
  ASPARTATE AMINOTRANSFERASE: 89 u/L
  BLOOD UREA NITROGEN: 17 mg/dL
  CARBON DIOXIDE: 29 mmol/L
  CHLORIDE: 103 MEQ/L
  CHOLESTEROL: 80.67 mg/dL
  CREATINE PHOSPHOKINASE: 622.67 u/L
  CREATININE: 0.21 mg/dL
  GLUCOSE: 160.67 mg/dL
  LACTATE DEHYDROGENASE: 288.33 u/L
  LIPASE: 11.67 u/L
  PHOSPHORUS: 12.93 mg/dL
  POTASSIUM: 6.22 MEQ/L
  SODIUM: 145.5 MEQ/L
  TOTAL BILIRUBIN: 0.17 mg/dL
  TOTAL PROTEIN: 5.97 G/DL
  URIC ACID: 1.77 mg/dL
[2]
  ABSOLUTE BASOPHIL: 0 CELLS/uL
  ABSOLUTE EOSINOPHIL: 126 CELLS/uL
  ABSOLUTE LYMPHOCYTE: 15175.33 CELLS/uL
  ABSOLUTE MONOCYTE: 93.67 CELLS/uL
  ABSOLUTE SEGMENTED NEUTROPHIL: 271.67 CELLS/uL
  BASOPHIL: 0%
  EOSINOPHIL: 0.67%
  ERYTHROCYTE COUNT: 5.63 x10E6/uL
  HEMATOCRIT: 33.73%
  HEMOGLOBIN: 13.4 G/DL
  LEUKOCYTE COUNT: 15.67 x10E3/uL
  LYMPHOCYTE: 97%
  MEAN CORPUSCULAR HEMOGLOBIN: 23.8 pg
  MEAN CORPUSCULAR HEMOGLOBIN CONCENTRATION: 39.77 G/DL
  MEAN CORPUSCULAR VOLUME: 59.8 fL
  MONOCYTE: 0.67%
  NEUTROPHIL: 1.67%
  NUCLEATED RED BLOOD CELLS: 0 /100WBC
  PLATELET COUNT: 1219.33 x10E3/uL
  ALANINE AMINOTRANSFERASE: 39 u/L
  ALBUMIN: 3.87 G/DL
  ALKALINE PHOSPHATASE: 312.33 u/L
  ASPARTATE AMINOTRANSFERASE: 118.33 u/L
  BLOOD UREA NITROGEN: 18.67 mg/dL
  CARBON DIOXIDE: 22 mmol/L
  CHLORIDE: 106.67 MEQ/L
  CHOLESTEROL: 56 mg/dL
  CREATINE PHOSPHOKINASE: 1266.33 u/L
  CREATININE: 0.24 mg/dL
  GLUCOSE: 163.67 mg/dL
  LACTATE DEHYDROGENASE: 328.67 u/L
  LIPASE: 10 u/L
  PHOSPHORUS: 11.83 mg/dL
  POTASSIUM: 5.65 MEQ/L
  SODIUM: 148.8 MEQ/L
  TOTAL BILIRUBIN: 0.23 mg/dL
  TOTAL PROTEIN: 5.53 G/DL
  URIC ACID: 1.8 mg/dL
[3]
  ABSOLUTE BASOPHIL: 0 CELLS/uL
  ABSOLUTE EOSINOPHIL: 0 CELLS/uL
  ABSOLUTE LYMPHOCYTE: 11668 CELLS/uL
  ABSOLUTE MONOCYTE: 117.67 CELLS/uL
  ABSOLUTE SEGMENTED NEUTROPHIL: 1081 CELLS/uL
  BASOPHIL: 0%
  EOSINOPHIL: 0%
  ERYTHROCYTE COUNT: 4.84 x10E6/uL
  HEMATOCRIT: 31.5%
  HEMOGLOBIN: 12.83 G/DL
  LEUKOCYTE COUNT: 12.87 x10E3/uL
  LYMPHOCYTE: 90.33%
  MEAN CORPUSCULAR HEMOGLOBIN: 26.5 pg
  MEAN CORPUSCULAR HEMOGLOBIN CONCENTRATION: 40.77 G/DL
  MEAN CORPUSCULAR VOLUME: 65 fL
  MONOCYTE: 1%
  NEUTROPHIL: 8.67%
  NUCLEATED RED BLOOD CELLS: 0 /100WBC
  PLATELET COUNT: 1111.67 x10E3/uL
  ALANINE AMINOTRANSFERASE: 56 u/L
  ALBUMIN: 4.23 G/DL
  ALKALINE PHOSPHATASE: 342.67 u/L
  ASPARTATE AMINOTRANSFERASE: 108 u/L
  BLOOD UREA NITROGEN: 13.67 mg/dL
  CARBON DIOXIDE: 26.33 mmol/L
  CHLORIDE: 105 MEQ/L
  CHOLESTEROL: 80.67 mg/dL
  CREATINE PHOSPHOKINASE: 777.33 u/L
  CREATININE: 0.24 mg/dL
  GLUCOSE: 165.67 mg/dL
  LACTATE DEHYDROGENASE: 493.33 u/L
  LIPASE: 8.33 u/L
  PHOSPHORUS: 13.3 mg/dL
  POTASSIUM: 6.06 MEQ/L
  SODIUM: 144.47 MEQ/L
  TOTAL BILIRUBIN: 0.17 mg/dL
  TOTAL PROTEIN: 5.67 G/DL
  URIC ACID: 1.5 mg/dL
[4]
  ABSOLUTE BASOPHIL: 0 CELLS/uL
  ABSOLUTE EOSINOPHIL: 175.33 CELLS/uL
  ABSOLUTE LYMPHOCYTE: 14127.33 CELLS/uL
  ABSOLUTE MONOCYTE: 0 CELLS/uL
  ABSOLUTE SEGMENTED NEUTROPHIL: 1364 CELLS/uL
  BASOPHIL: 0%
  EOSINOPHIL: 1%
  ERYTHROCYTE COUNT: 5.43 x10E6/uL
  HEMATOCRIT: 34.73%
  HEMOGLOBIN: 13.6 G/DL
  LEUKOCYTE COUNT: 15.67 x10E3/uL
  LYMPHOCYTE: 90.33%
  MEAN CORPUSCULAR HEMOGLOBIN: 25.07 pg
  MEAN CORPUSCULAR HEMOGLOBIN CONCENTRATION: 39.17 G/DL
  MEAN CORPUSCULAR VOLUME: 63.97 fL
  MONOCYTE: 0%
  NEUTROPHIL: 8.67%
  NUCLEATED RED BLOOD CELLS: 0 /100WBC
  PLATELET COUNT: 1364.67 x10E3/uL
  ALANINE AMINOTRANSFERASE: 58.33 u/L
  ALBUMIN: 4.33 G/DL
  ALKALINE PHOSPHATASE: 411.67 u/L
  ASPARTATE AMINOTRANSFERASE: 88.33 u/L
  BLOOD UREA NITROGEN: 18.33 mg/dL
  CARBON DIOXIDE: 27.33 mmol/L
  CHLORIDE: 103 MEQ/L
  CHOLESTEROL: 72 mg/dL
  CREATINE PHOSPHOKINASE: 231.67 u/L
  CREATININE: 0.23 mg/dL
  GLUCOSE: 179 mg/dL
  LACTATE DEHYDROGENASE: 197.33 u/L
  LIPASE: 11 u/L
  PHOSPHORUS: 14.8 mg/dL
  POTASSIUM: 6.06 MEQ/L
  SODIUM: 146.8 MEQ/L
  TOTAL BILIRUBIN: 0.2 mg/dL
  TOTAL PROTEIN: 6.07 G/DL
  URIC ACID: 2.07 mg/dL
